# Tests used:
# ABL1 = target: T1, ABL1 (Homo sapiens, UniProt P00519); test: Luminescence-based ABL kinase assay (300 μM ATP), ADP-Glo; assay type: biochemical
# T1 construct: purchased Carna Biosciences
# Excerpt: Compounds were serially diluted in DMSO. […] Luminescence signal positively correlates with kinase activity.
# K562 cells = test: K562 cell proliferation assay (CellTiter-Glo); assay type: cell-based; conditions: Homo sapiens, K562 cell viability, 72 hours, read-out: Cell Line (IC50, nM) K562
# Description: (§1) K562 and HL60 Cell Proliferation Assay
# (§2) K562 and HL60 cells, cultured in Iscove's Modified Dulbecco's Media (IMDM) supplemented with 10% FBS, were harvested at 50-80% confluency and plated at 2,000 cells per well (K562) or 1,500 cells per well (HL60) in 384-well tissue culture plates. A subset of wells contained media only (low control, LC). […] The plates were placed in a 37° C. incubator with 5% CO2 for 72 hours. Cell viability was measured using a CellTiter-Glo luminescent cell viability assay (Promega), which allows for relative quantification of metabolically active cells by luminescence-based measurements of intracellular ATP concentrations. Briefly, plates were removed from the incubator and equilibrated for 15 minutes at room temperature prior to the addition of 40 μL of CellTiter-Glo reagent. Plates were then incubated for 30 minutes at room temperature. Luminescence was measured using an EnSpire plate reader (Perkin Elmer). As noted above, luminescence values from wells with DMSO only or media without cells were used as high and low controls (HC and LC), respectively. Normalized percent viability was calculated as follows: percent viability=100×(Lumsample−LumLC)/(LumHC−LumLC).
# HL60 cells = test: HL60 cell proliferation assay (CellTiter-Glo); assay type: cell-based; conditions: Homo sapiens, HL-60, HL60 cell viability, 72 hours, read-out: Cell Line (IC50, nM) HL60
# Description: as §1, §2
# ABL1 (T315I) = ABL1 (T315I) (Homo sapiens, UniProt P00519, T315I); test: Luminescence-based ABL kinase assay (300 μM ATP), ADP-Glo; assay type: biochemical
SMILES,IC50 (ABL1),IC50 (K562 cells),IC50 (HL60 cells),IC50 (ABL1 (T315I))
"COc1ccccc1-c1cc2cc(NC(=O)[C@H]3C[C@H]3CO)ncc2n1C (relative stereo) [Compound 23, cis-2-(hydroxymethyl)-N-(2-(2-methoxyphenyl)-1-methyl-1H-pyrrolo[2,3-c]pyridin-5-yl)cyclopropane-1-carboxamide]",119 nM,631 nM,1690 nM,79.5 nM
"COc1ccnc(OC)c1-c1cc2cc(NC(=O)[C@H]3C[C@@H]3CN3C4CCC3CNC4)ncc2n1C (relative stereo) [Compound 147, Trans-2-((3,8-diazabicyclo[3.2.1]octan-8-yl)methyl)-N-(2-(2,4-dimethoxypyridin-3-yl)-1-methyl-1H-pyrrolo[2,3-c]pyridin-5-yl)cyclopropane-1-carboxamide]",24.4 nM,152 nM,–,41.8 nM
"COc1ccnc(OC)c1-c1cc2cc(NC(=O)[C@@H]3C[C@H]3CN3CCN(C)CC3)ncc2n1C (single isomer, unassigned) [Compound 121]",88.8 nM,99.1 nM,> 10000 nM,87.9 nM
"COc1ccnc(OC)c1-c1cc2cc(NC(=O)[C@@H]3C[C@H]3CN(C)C)ncc2n1C (single isomer, unassigned) [Compound 122]",53.4 nM,117 nM,> 10000 nM,52.8 nM
"COc1ccnc(OC)c1-c1cc2cc(NC(=O)[C@H]3C[C@@H]3CN(C)C)ncc2n1C (single isomer, unassigned) [Compound 123]",59.4 nM,106 nM,1770 nM,80.6 nM
"COc1ncnc(OC)c1-c1cc2cc(NC(=O)[C@H]3C[C@@H]3CN3CCN(C)CC3)ncc2n1C (single isomer, unassigned) [Compound 124]",14.9 nM,41.4 nM,> 10000 nM,56.7 nM
"COc1ncnc(OC)c1-c1cc2cc(NC(=O)[C@@H]3C[C@H]3CN3CCN(C)CC3)ncc2n1C (single isomer, unassigned) [Compound 125]",48.3 nM,113 nM,> 10000 nM,107 nM
"COc1ncc(F)c(OC)c1-c1cc2cc(NC(=O)[C@@H]3C[C@H]3CN3CCN(C)CC3)ncc2n1C (single isomer, unassigned) [Compound 129]",33.4 nM,85.5 nM,> 10000 nM,34.6 nM
"COc1ncc(F)c(OC)c1-c1cc2cc(NC(=O)[C@@H]3C[C@H]3CN(C)C)ncc2n1C (single isomer, unassigned) [Compound 130]",37.3 nM,108 nM,> 10000 nM,58.1 nM
"COc1ccccc1-c1cc2cc(NC(=O)[C@@H]3C[C@H]3CN(C)C)ncc2n1C (single isomer, unassigned) [Compound 132]",59.4 nM,165 nM,–,75.1 nM
"COc1ccccc1-c1cc2cc(NC(=O)[C@H]3C[C@@H]3CN(C)C)ncc2n1C (single isomer, unassigned) [Compound 133]",73.5 nM,181 nM,–,85.9 nM
"COc1ccccc1-c1cc2cc(NC(=O)C3CC3)ncc2n1C [Compound 2, N-(2-(2-methoxyphenyl)-1-methyl-1H-pyrrolo[2,3-c]pyridin-5-yl)cyclopropanecarboxamide]",25.4 nM,109 nM,202 nM,17.7 nM
"CCOc1ccccc1-c1cc2cc(NC(=O)C3CC3)ncc2n1C [Compound 3, N-[2-(2-ethoxyphenyl)-1-methylpyrrolo[2,3-c]pyridin-5-yl]cyclopropanecarboxamide]",–,127 nM,209 nM,–
"Cc1c(O)cccc1-c1cc2cc(NC(=O)C3CC3)ncc2n1C [Compound 7, N-[2-(3-hydroxy-2-methylphenyl)-1-methylpyrrolo[2,3-c]pyridin-5-yl]cyclopropanecarboxamide]",9.22 nM,37.8 nM,60.9 nM,6.59 nM
"Cc1cc(O)ccc1-c1cc2cc(NC(=O)C3CC3)ncc2n1C [Compound 8, N-[2-(4-hydroxy-2-methylphenyl)-1-methylpyrrolo[2,3-c]pyridin-5-yl]cyclopropanecarboxamide]",–,95.6 nM,59.1 nM,–
"COc1cccc(C)c1-c1cc2cc(NC(=O)C3CC3)ncc2n1C [Compound 11, N-[2-(2-methoxy-6-methylphenyl)-1-methylpyrrolo[2,3-c]pyridin-5-yl]cyclopropanecarboxamide]",13.8 nM,0.421 nM,182 nM,38.6 nM
"Cc1ccc(F)cc1-c1cc2cc(NC(=O)C3CC3)ncc2n1C [Compound 12, N-[2-(5-fluoro-2-methylphenyl)-1-methylpyrrolo[2,3-c]pyridin-5-yl]cyclopropanecarboxamide]",–,317 nM,4220 nM,–
"COc1ncccc1-c1cc2cc(NC(=O)C3CC3)ncc2n1C [Compound 22, N-[2-(2-methoxypyridin-3-yl)-1-methylpyrrolo[2,3-c]pyridin-5-yl]cyclopropanecarboxamide]",–,179 nM,958 nM,–
"Cc1c(O)cccc1-c1cc2cc(NC(=O)[C@@H]3C[C@@H]3F)ncc2n1C [Compound 24, (1S,2S)-2-fluoro-N-(2-(3-hydroxy-2-methylphenyl)-1-methyl-1H-pyrrolo[2,3-c]pyridin-5-yl)cyclopropane-1-carboxamide]",9.33 nM,122 nM,794 nM,8.34 nM
"COc1nc(C2CC2)nc(OC)c1-c1cc2cc(NC(=O)[C@@H]3C[C@@H]3F)ncc2n1C [Compound 100, (1S,2S)-N-(2-(2-cyclopropyl-4,6-dimethoxypyrimidin-5-yl)-1-methyl-1H-pyrrolo[2,3-c]pyridin-5-yl)-2-fluorocyclopropane-1-carboxamide]",49.2 nM,66.2 nM,–,233 nM
"COc1nc(C)c(F)c(OC)c1-c1cc2cc(NC(=O)[C@@H]3C[C@@H]3F)ncc2n1C [Compound 101, (1S,2S)-2-fluoro-N-[2-(5-fluoro-2,4-dimethoxy-6-methylpyridin-3-yl)-1-methylpyrrolo[2,3-c]pyridin-5-yl]cyclopropane-1-carboxamide]",153 nM,456 nM,–,2330 nM
"COc1nc(N(C)C)nc(OC)c1-c1cc2cc(NC(=O)[C@@H]3C[C@@H]3F)ncc2n1C [Compound 104, (1S,2S)-N-(2-(2-(dimethylamino)-4,6-dimethoxypyrimidin-5-yl)-1-methyl-1H-pyrrolo[2,3-c]pyridin-5-yl)-2-fluorocyclopropane-1-carboxamide]",–,–,240 nM,–
"[2H]C([2H])([2H])Oc1ncnc(OC([2H])([2H])[2H])c1-c1cc2cc(NC(=O)[C@@H]3C[C@@H]3F)ncc2n1C([2H])([2H])[2H] [Compound 111, (1S,2S)-N-(2-(4,6-bis(methoxy-d3)pyrimidin-5-yl)-1-(methyl-d3)-1H-pyrrolo[2,3-c]pyridin-5-yl)-2-fluorocyclopropane-1-carboxamide]",–,23 nM,–,–
"COc1cccc(OC)c1-c1cc2cc(NC(=O)[C@@H]3C[C@H]3CN(C)C)ncc2n1C [Compound 134, (1R,2R)-N-(2-(2,6-dimethoxyphenyl)-1-methyl-1H-pyrrolo[2,3-c]pyridin-5-yl)-2-((dimethylamino)methyl)cyclopropane-1-carboxamide]",–,53.1 nM,–,–
"COc1cccc(OC)c1-c1cc2cc(NC(=O)[C@H]3C[C@@H]3CN(C)C)ncc2n1C [Compound 135, (J S,2S)-N-(2-(2,6-dimethoxyphenyl)-1-methyl-1H-pyrrolo[2,3-c]pyridin-5-yl)-2-((dimethylamino)methyl)cyclopropane-1-carboxamide]",–,27.9 nM,–,–
"COc1ncnc(OC)c1-c1cc2cc(NC(=O)[C@@H]3CC3(F)F)ncc2n1C [Compound 136, (1S)-N-[2-(4,6-dimethoxypyrimidin-5-yl)-1-methylpyrrolo[2,3-c]pyridin-5-yl]-2,2-difluorocyclopropane-1-carboxamide]",–,98.8 nM,1200 nM,–
"COc1ncnc(OC)c1-c1cc2cc(NC(=O)[C@H]3CC3(F)F)ncc2n1C [Compound 137, (1R)-N-[2-(4,6-dimethoxypyrimidin-5-yl)-1-methylpyrrolo[2,3-c]pyridin-5-yl]-2,2-difluorocyclopropane-1-carboxamide]",–,37 nM,148 nM,–
"Cn1c(-c2cc(F)cnc2OC2CC2)cc2cc(NC(=O)[C@@H]3C[C@@H]3F)ncc21 [Compound 140, (1S,2S)-N-[2-(2-cyclopropoxy-5-fluoropyridin-3-yl)-1-methylpyrrolo[2,3-c]pyridin-5-yl]-2-fluorocyclopropane-1-carboxamide]",95.8 nM,291 nM,> 10000 nM,–
"[2H]C([2H])([2H])Oc1ncnc(OC([2H])([2H])[2H])c1-c1cc2cc(NC(=O)[C@@H]3C[C@@H]3F)ncc2[nH]1 [Compound 144, (1S,2S)-N-(2-(4,6-bis(methoxy-d3)pyrimidin-5-yl)-1H-pyrrolo[2,3-c]pyridin-5-yl)-2-fluorocyclopropane-1-carboxamide]",–,1070 nM,> 10000 nM,–

# Reference: patent US12240846B2 (Enliven Inc., priority 2020, dated 2025)
